Tests used:
Test in all cases: Herbicidal activity, foliar application of single compounds (Test Examples 1 to 5)
Format in all cases: in vivo
Design in all cases: key: 0 means the state where the plants are as sound as before the application of the active compound; 1, 2, 3 and 4 mean varying degrees of the enfeebled state of the plants between 0 and 5; 1, 2, 3 and 4 mean varying degrees of the enfeebled state of the plants between 0 and 5; 1, 2, 3 and 4 mean varying degrees of the enfeebled state of the plants between 0 and 5; 1, 2, 3 and 4 mean varying degrees of the enfeebled state of the plants between 0 and 5; 5 is the state where the plants are withered or killed by application of the active compound
Conditions in all cases: 3 weeks after application
[1] = tested on: Chenopodium album var. centrorubrum
Protocol: (§1) In these examples, all parts means parts by weight, unless otherwise noted. The herbicidal activity was evaluated on a scale of 6 degrees. In other words, 0 means the state where the plants are as sound as before the application of the active compound, while 5 is the state where the plants are withered or killed by application of the active compound, and 1, 2, 3 and 4 mean varying degrees of the enfeebled state of the plants between 0 and 5.
(§2) The diphenyl ethers shown in Table 2 were added to 5000 parts of a mixture of acetone and water (1 : 1 by volume), and 2.6 parts of a nonionic surfactant (Sorpol 2680, tradename) was added to form a solution, so that the ether becomes the prescribed amount in each solution.
(§3) Seeds of plants were sown in the soil, cultivated for 2 to 3 weeks, after germination, then the plants were used for the tests.
(§4) The prepared solution was applied to these plants at the prescribed rate of application in total, then the plants were continuously cultivated for 3 weeks without applying the solution.
(§5) The alphabetical symbols in Tables 2 and 3 represent the following plants, respectively: a: Digitaria adscendens b: Setaria viridis c: Sorghum halepense d: Chenopodium album var. centrorubrum e: Amaranthus mangostanus f: Astragalus sinicus g: Abutilon theophrosti h: Solanum nigrum i: Xanthium strumarium j: Soybean; Glycine max k: Corn; Zea mays Table 2

Corn; Zea mays = tested on: Corn; Zea mays
Protocol: as §1, §2, §3, §4, §5

Digitaria adscendens = tested on: Digitaria adscendens
Protocol: as §1, §2, §3, §4, §5

Setaria viridis = tested on: Setaria viridis
Protocol: as §1, §2, §3, §4, §5

Solanum nigrum = tested on: Solanum nigrum
Protocol: as §1, §2, §3, §4, §5

Sorghum halepense = tested on: Sorghum halepense
Protocol: as §1, §2, §3, §4, §5

Soybean; Glycine max = tested on: Soybean; Glycine max
Protocol: as §1, §2, §3, §4, §5

Xanthium strumarium = tested on: Xanthium strumarium
Protocol: as §1, §2, §3, §4, §5

[2] = Rate of Application 0.016 kg/ha
[3] = Rate of Application 0.031 kg/ha

COC(=O)C(C)Oc1cc(Oc2ccc(C(F)(F)F)cc2Cl)ccc1C#N (stereo not drawn) [Compound (1), Methyl α-[2-cyano-5-(2-chloro-4-trifluoromethylphenoxy)phenoxy]propionate]
herbicidal activity, Plants d [1, 2]: 5 | herbicidal activity, Plants d [1, 3]: 5 | herbicidal activity, Plants k (Corn; Zea mays; [2]): 5 | herbicidal activity, Plants k (Corn; Zea mays; [3]): 5 | herbicidal activity, Plants a (Digitaria adscendens; [2]): 4 | herbicidal activity, Plants a (Digitaria adscendens; [3]): 4 | herbicidal activity, Plants b (Setaria viridis; [2]): 3 | herbicidal activity, Plants b (Setaria viridis; [3]): 4 | herbicidal activity, Plants h (Solanum nigrum; [2]): 5 | herbicidal activity, Plants h (Solanum nigrum; [3]): 5 | herbicidal activity, Plants c (Sorghum halepense; [2]): 5 | herbicidal activity, Plants c (Sorghum halepense; [3]): 5 | herbicidal activity, Plants j (Soybean; Glycine max; [2]): 4 | herbicidal activity, Plants j (Soybean; Glycine max; [3]): 4 | herbicidal activity, Plants i (Xanthium strumarium; [2]): 5 | herbicidal activity, Plants i (Xanthium strumarium; [3]): 5

From patent publication EP0533925A1, “OPTICAL ISOMER OF R-FORM OF DIPHENYL ETHER DERIVATIVE AND HERBICIDE CONTAINING THE SAME AS ACTIVE INGREDIENT” (TEIJIN LIMITED, priority 1990, dated 1991)
